Test results published in patent US12559474B2, “Triazine derivatives having virus replication inhibitory activity and pharmaceutical composition comprising the same” (priority 2021, dated 2026).
Where two headings read alike, the source gives them in different places.

How the values were obtained:
SARS-CoV-2 = test: microbe, parasite or virus in culture; type: cell-based; conditions: Severe acute respiratory syndrome coronavirus 2, VeroE6/TMPRSS2, 72 h, 50% SARS-CoV-2 infected cell death inhibitory concentration, VeroE6/TMPRSS2 cells, 3 days culture
SARS-CoV-2 3CL protease = SARS-CoV-2 3CL protease (Severe acute respiratory syndrome coronavirus 2, UniProt P0DTD1); test: biochemical; conditions: 50% SARS-CoV-2 3CL protease inhibitory concentration, read-out: IC50

| SMILES | EC50 (SARS-CoV-2; class symbols) | IC50 (SARS-CoV-2 3CL protease; given as class symbols) | EC50 (SARS-CoV-2; CellTiter-Glo 2.0) | IC50 (SARS-CoV-2 3CL protease; RapidFire MS) |
| --- | --- | --- | --- | --- |
| COc1ccc(Nc2nc(=O)n(Cc3ccc[nH]c3=O)c(=O)n2Cc2cc(F)c(F)c(F)c2F)cc1 [Compound I-0256] | 1 to 10 µM | < 0.1 µM | – | – |
| COc1ccc(Nc2nc(=O)n(Cc3cc(-c4ncco4)c[nH]c3=O)c(=O)n2Cc2cc(F)c(F)c(F)c2)cc1 [Compound I-0260] | 1 to 10 µM | < 0.1 µM | – | – |
| Cc1nc2cc(Cl)c(Nc3nc(=O)n(Cc4ccc[nH]c4=O)c(=O)n3Cc3cc(F)c(F)c(Cl)c3)cc2n1C [Compound I-0264] | 1 to 10 µM | < 0.1 µM | – | – |
| Cn1cc2cc(Nc3nc(=O)n(Cc4ccc[nH]c4=O)c(=O)n3Cc3ccc(F)c(C#N)c3)c(Cl)cc2n1 [Compound I-0267] | 1 to 10 µM | < 0.1 µM | – | – |
| N#Cc1cc(Cn2c(Nc3cc4c(cc3Cl)OCC4)nc(=O)n(Cc3cc(F)c[nH]c3=O)c2=O)ccc1F [Compound I-0271] | 1 to 10 µM | < 0.1 µM | – | – |
| O=c1[nH]cc(F)cc1Cn1c(=O)nc(Nc2cc3c(cc2Cl)OCC3)n(Cc2cc(F)c(F)c(F)c2)c1=O [Compound I-0272] | < 1 µM | < 0.1 µM | – | – |
| O=c1[nH]cccc1Cn1c(=O)nc(Nc2cc3cccnc3cc2Cl)n(Cc2cc(F)c(F)c(F)c2)c1=O [Compound I-0279] | 1 to 10 µM | < 0.1 µM | – | – |
| O=c1[nH]cccc1Cn1c(=O)nc(Nc2cc3cn(CCO)nc3cc2Cl)n(Cc2cc(F)c(F)c(F)c2)c1=O [Compound I-0281] | – | – | 4.18 µM | 0.0038 µM |
| O=c1[nH]cccc1Cn1c(=O)nc(Nc2cc3cn(CC(F)F)nc3cc2Cl)n(Cc2cc(F)c(F)c(F)c2)c1=O [Compound I-0284] | < 1 µM | < 0.1 µM | – | – |
| COCCn1cc2cc(Nc3nc(=O)n(Cc4ccc[nH]c4=O)c(=O)n3Cc3cc(F)c(F)c(F)c3)c(Cl)cc2n1 [Compound I-0285] | 1 to 10 µM | < 0.1 µM | – | – |
| CCCCn1cc2cc(Nc3nc(=O)n(Cc4ccc[nH]c4=O)c(=O)n3Cc3cc(F)c(F)c(F)c3)c(Cl)cc2n1 [Compound I-0286] | 1 to 10 µM | < 0.1 µM | – | – |
| O=c1nc(Nc2cc3cn(CCO)nc3cc2Cl)n(Cc2cc(F)c(F)c(F)c2)c(=O)n1-c1cncc2ccccc12 [Compound I-0288] | – | – | 0.747 µM | 0.0058 µM |
| C[C@@H](O)Cn1cc2cc(Nc3nc(=O)n(Cc4cc(Cl)c[nH]c4=O)c(=O)n3Cc3cc(F)c(F)c(F)c3)c(Cl)cc2n1 [Compound I-0290] | 1 to 10 µM | < 0.1 µM | – | – |
| COc1ccc(Nc2nc(=O)n(Cc3cc4ccccc4[nH]c3=O)c(=O)n2Cc2cc(F)c(F)c(F)c2)cc1 [Compound I-0306] | 1 to 10 µM | < 0.1 µM | – | – |
| COc1ccc(Nc2nc(=O)n(Cc3cc(C(F)(F)F)c[nH]c3=O)c(=O)n2Cc2cc(F)c(F)c(F)c2)cc1 [Compound I-0307] | < 1 µM | 0.1 to 1 µM | – | 0.44 µM |
| COc1ccc(Nc2nc(=O)n(Cc3cc(Br)c[nH]c3=O)c(=O)n2Cc2cc(F)c(F)c(F)c2)cc1 [Compound I-0310] | 1 to 10 µM | < 0.1 µM | – | – |
| COc1ccc(Nc2nc(=O)n(Cc3ccc[nH]c3=O)c(=O)n2Cc2cc(F)cc(Cl)c2)cc1 [Compound I-0316] | 1 to 10 µM | < 0.1 µM | – | – |
| COc1ccc(Nc2nc(=O)n(Cc3cc(-c4ccccc4)c[nH]c3=O)c(=O)n2Cc2cc(F)c(F)c(F)c2)cc1 [Compound I-0318] | 1 to 10 µM | 0.1 to 1 µM | 1.36 µM | 0.11 µM |
| COc1ccc(Nc2nc(=O)n(Cc3ccc[nH]c3=O)c(=O)n2Cc2cc(F)c(F)cc2F)cc1 [Compound I-0320] | 1 to 10 µM | < 0.1 µM | – | – |
| COc1ccc(Nc2nc(=O)n(Cc3ccc[nH]c3=O)c(=O)n2Cc2ccc(Cl)s2)cc1 [Compound I-0321] | < 1 µM | 1 to 10 µM | – | 2.1 µM |
| O=c1[nH]cccc1Cn1c(=O)nc(-c2ccccc2)n(Cc2cc(F)c(F)c(F)c2)c1=O [Compound I-0329] | – | – | 5.1 µM | 2 µM |
| O=c1[nH]cccc1Cn1c(=O)nc(Nc2ccc(O)cc2Cl)n(Cc2cc(F)c(F)c(F)c2)c1=O [Compound I-0330] | 1 to 10 µM | < 0.1 µM | – | – |
| COc1ccc(Nc2nc(=O)n(Cc3ccc[nH]c3=O)c(=O)n2Cc2ccc(F)c(C#N)c2)c(Cl)c1 [Compound I-0331] | 1 to 10 µM | < 0.1 µM | – | – |
| COc1ccc(Nc2nc(=O)n(Cc3ccc[nH]c3=O)c(=O)n2Cc2ccc(F)c(C#N)c2)c(F)c1 [Compound I-0332] | 1 to 10 µM | < 0.1 µM | – | – |
| COc1ccc(Nc2nc(=O)n(Cc3ncn(C)n3)c(=O)n2Cc2cc(F)c(F)c(F)c2)cc1 [Compound I-0335] | 1 to 10 µM | 0.1 to 1 µM | – | – |
| COc1ccc(Nc2nc(=O)n(Cc3ncc(C)s3)c(=O)n2Cc2cc(F)c(F)c(F)c2)cc1 [Compound I-0339] | 1 to 10 µM | 0.1 to 1 µM | 8 µM | 0.61 µM |
| COc1ccc(Nc2nc(=O)n(-c3cncc4ccncc34)c(=O)n2Cc2cc(F)c(F)c(F)c2)cc1 [Compound I-0344] | < 1 µM | < 0.1 µM | – | – |
